Assay results: PubChem BioAssay AID328 (DTP/NCI, 2004)
Where “and” joins values, the source holds several entries; their conditions need not be identical. Identical values can stand only once. Inconclusive results and toxic doses are left out.

Test system: BDF1 mice, P388 leukemia ip, median survival T/C
Test: NCI In Vivo Anticancer Drug Screen. Data for tumor model P388 Leukemia (intraperitoneal) in B6D2F1 (BDF1) mice
Settings: endpoint: median survival time, higher = longer survival
How it was run: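 Survival ratio, drug arm over vehicle arm, in mice with a transplanted tumour.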

**Q.** `COc1cccc2c1C(=O)c1c(O)c3c(c(O)c1C2=O)C[C@@](O)(C(=O)CO)C[C@@H]3OC1CC(N)C(O)C(C)O1` (some centres not stated) was tested. Which T/C (dose: 3.0 mg/kg/injection, schedule: Q01DX009 (ip), vehicle: saline) did it give?
**A.** Its T/C is 104 % of control.

**Q.** What about the T/C (dose: 3.0 mg/kg/injection, schedule: Q01DX009 (sc), vehicle: saline) of the same compound?
**A.** The T/C was 100 % of control.

**Q.** And the T/C (dose: 3.0 mg/kg/injection, schedule: Q03HX008 (ip), vehicle: water)?
**A.** The T/C was 243 % of control.

**Q.** What about the T/C (dose: 3.0 mg/kg/injection, schedule: Q04DX004 (ip), vehicle: saline) of the same compound?
**A.** The T/C was 112 % of control.

**Q.** And the T/C (dose: 3.5 mg/kg/injection, schedule: Q01DX009 (ip), vehicle: saline)?
**A.** Its T/C is 90 % of control.

**Q.** And the T/C (dose: 3.5 mg/kg/injection, schedule: Q01DX009 (sc), vehicle: saline)?
**A.** The T/C was 100 % of control.

**Q.** And the T/C (dose: 3.6 mg/kg/injection, schedule: Q01DX004 (ip), vehicle: saline with Tween-80)?
**A.** The T/C was 123 % of control.

**Q.** What about the T/C (dose: 3.6 mg/kg/injection, schedule: Q04DX003 (ip), vehicle: saline + alcohol) of the same compound?
**A.** Its T/C is 232 % of control.

**Q.** And the T/C (dose: 3.6 mg/kg/injection, schedule: Q04DX003 (ip), vehicle: water)?
**A.** The T/C was 240 % of control and 259 % of control.

**Q.** What about the T/C (dose: 4.0 mg/kg/injection, schedule: Q03HX008 (ip), vehicle: saline) of the same compound?
**A.** Its T/C is 541 % of control.

**Q.** And the T/C (dose: 4.0 mg/kg/injection, schedule: Q04DX003 (sc), vehicle: saline)?
**A.** Its T/C is 150 % of control.

**Q.** What about the T/C (dose: 4.0 mg/kg/injection, schedule: Q06HX004 (ip), vehicle: water) of the same compound?
**A.** Its T/C is 545 % of control.

**Q.** What about the T/C (dose: 4.4 mg/kg/injection, schedule: Q01DX001 (ip), vehicle: saline) of the same compound?
**A.** The T/C was 150 % of control.

**Q.** And the T/C (dose: 4.5 mg/kg/injection, schedule: Q01DX009 (ip), vehicle: clinical formulation)?
**A.** Its T/C is 100 % of control.

**Q.** What about the T/C (dose: 4.5 mg/kg/injection, schedule: Q04DX003 (ip), vehicle: saline) of the same compound?
**A.** The T/C was 539 % of control and 571 % of control.

**Q.** And the T/C (dose: 4.8 mg/kg/injection, schedule: Q04DX003 (ip), vehicle: water)?
**A.** The T/C was 224 % of control and 247 % of control.

**Q.** And the T/C (dose: 5.0 mg/kg/injection, schedule: Q01DX001 (ip), vehicle: saline)?
**A.** Its T/C is 252 % of control.

**Q.** And the T/C (dose: 5.0 mg/kg/injection, schedule: Q03HX008 (ip), vehicle: water)?
**A.** Its T/C is 89 % of control.

**Q.** And the T/C (dose: 5.0 mg/kg/injection, schedule: Q07DX006 (ip), vehicle: saline)?
**A.** The T/C was 245 % of control.

**Q.** And the T/C (dose: 5.5 mg/kg/injection, schedule: Q04DX003 (ip), vehicle: saline)?
**A.** Its T/C is 571 % of control.

**Q.** What about the T/C (dose: 5.5 mg/kg/injection, schedule: Q04DX003 (sc), vehicle: saline) of the same compound?
**A.** Its T/C is 150 % of control.

**Q.** What about the T/C (dose: 6.0 mg/kg/injection, schedule: Q01DX001 (ip), vehicle: saline) of the same compound?
**A.** The T/C was 516 % of control.

**Q.** And the T/C (dose: 6.0 mg/kg/injection, schedule: Q04DX003 (ip), vehicle: saline + alcohol)?
**A.** The T/C was 270 % of control.

**Q.** And the T/C (dose: 6.0 mg/kg/injection, schedule: Q04DX003 (ip), vehicle: saline)?
**A.** The T/C was 225 % of control and 153 % of control.

**Q.** And the T/C (dose: 6.0 mg/kg/injection, schedule: Q04DX003 (ip), vehicle: water)?
**A.** Its T/C is 250 % of control and 106 % of control and 123 % of control.

**Q.** What about the T/C (dose: 6.0 mg/kg/injection, schedule: Q## X003 (ip), vehicle: saline) of the same compound?
**A.** The T/C was 153 % of control.

**Q.** What about the T/C (dose: 6.6 mg/kg/injection, schedule: Q01DX001 (iv), vehicle: saline) of the same compound?
**A.** The T/C was 109 % of control.

**Q.** And the T/C (dose: 6.67 mg/kg/injection, schedule: Q04DX003 (ip), vehicle: saline)?
**A.** Its T/C is 271 % of control.

**Q.** And the T/C (dose: 7.5 mg/kg/injection, schedule: Q01DX001 (ip), vehicle: saline)?
**A.** The T/C was 295 % of control.

**Q.** And the T/C (dose: 7.5 mg/kg/injection, schedule: Q01DX001 (sc), vehicle: saline)?
**A.** Its T/C is 150 % of control.

**Q.** And the T/C (dose: 7.5 mg/kg/injection, schedule: Q07DX006 (ip), vehicle: saline)?
**A.** Its T/C is 409 % of control.

**Q.** What about the T/C (dose: 8.0 mg/kg/injection, schedule: Q04DX009 (ip), vehicle: water) of the same compound?
**A.** The T/C was 150 % of control.

**Q.** And the T/C (dose: 8.4 mg/kg/injection, schedule: Q03HX008 (ip), vehicle: water)?
**A.** Its T/C is 83 % of control.

**Q.** What about the T/C (dose: 10.0 mg/kg/injection, schedule: Q01DX001 (ip), vehicle: water) of the same compound?
**A.** The T/C was 268 % of control.

**Q.** What about the T/C (dose: 10.0 mg/kg/injection, schedule: Q01DX001 (iv), vehicle: saline) of the same compound?
**A.** The T/C was 117 % of control.

**Q.** And the T/C (dose: 10.0 mg/kg/injection, schedule: Q07DX006 (ip), vehicle: saline)?
**A.** The T/C was 313 % of control.

**Q.** What about the T/C (dose: 12.0 mg/kg/injection, schedule: Q01DX001 (ip), vehicle: saline) of the same compound?
**A.** The T/C was 486 % of control and 516 % of control (2×).

**Q.** And the T/C (dose: 15.0 mg/kg/injection, schedule: Q01DX001 (iv), vehicle: saline)?
**A.** Its T/C is 235 % of control and 312 % of control.

**Q.** And the T/C (dose: 16.0 mg/kg/injection, schedule: Q04DX009 (ip), vehicle: water)?
**A.** The T/C was 108 % of control.

**Q.** What about the T/C (dose: 16.7 mg/kg/injection, schedule: Q01DX001 (ip), vehicle: water) of the same compound?
**A.** Its T/C is 112 % of control.

**Q.** What about the T/C (dose: 20.0 mg/kg/injection, schedule: Q01DX001 (ip), vehicle: saline) of the same compound?
**A.** Its T/C is 104 % of control.

**Q.** What about the T/C (dose: 20.0 mg/kg/injection, schedule: Q01DX001 (ip), vehicle: water) of the same compound?
**A.** The T/C was 79 % of control.
